Data: patent US20220289732A1, “HETEROCYCLIC WDR5 INHIBITORS AS ANTI-CANCER COMPOUNDS” (NOVARTIS AG, priority 2019, published 2022)

Tests used:
WDR5 = WDR5 (Homo sapiens, UniProt P61964); experiment: WDR5 HTRF binding assay; settings: read-out: (a) WDR5 HTRF Pep Val v.1[Inhibitor/IC50]Qualified AC50
Outline: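 6 nM WDR5 and 20 nM biotin-MLL1 WIN peptide (3762-3773) were incubated with compound (12-point, 3-fold dilutions) in pH 7.5 Hepes/NaCl/DTT buffer for 20 min at rt. Streptavidin-APC plus anti-His-Eu were then added for 1 hr, with HTRF read at 665/615. IC50 was fit from control-normalized activity; the counter assay used 15 nM biotin-PEG-His peptide.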

[1] = molecular target: wild type MLL1 four-member complex (MLL1-4C) (Homo sapiens, UniProt P61964); experiment: MLL1 LC-MS assay (SAH production); type: biochemical; settings: read-out: (b) MLL LCMS Peptide Val.v.1 Qualified AC50
Outline: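 MLL1-4C (30 nM final) was preincubated 20 min with compound (3-fold dilutions, 8 or 12 points) and SAM in Tris-HCl pH 8.0 buffer. H3K4me0 peptide (histone H3[1-21]-biotin) was then added, giving final 2.5 μM SAM and 10 μM substrate, and reactions ran 120 min at rt. After TFA/d4-SAH quench, SAH was quantified by LC-MS/MS and IC50 fitted from control-normalised activity.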

MV4-11 cells = experiment: MV4-11 6-day cell growth CTG (CellTiter-Glo) assay; type: cell-based; settings: Homo sapiens, MV4-11, 144 h, 6 days, read-out: (c) MLL/WDR5 cell proliferation assay//MLL/WDR5 proliferation MV4:11 Qualified AC50
Outline: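 Exponentially growing MV4-11 AML cells (RPMI 1640, 10% FBS) seeded at 300 cells/well with 12-point 1:3 compound dilutions, top final concentration 50 μM. Viability read by CellTiter-Glo luminescence after 6 days at 37° C; % inhibition vs DMSO-only wells fitted to dose-response for IC50.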

Row | Structure (SMILES) | IC50 (WDR5) | AC50 [1] | AC50 (MV4-11 cells)
1 | CCOc1cc(C(C)N2CCc3c(cc(CCN(C)CC)cc3-c3cc(C)nnc3C)C2=O)ncc1C (stereo not drawn) [Example 211, 5-(3,6-dimethylpyridazin-4-yl)-2-(1-(4-ethoxy-5-methylpyridin-2-yl)ethyl)-7-(2-(ethyl(methyl)amino)ethyl)-3,4-dihydroisoquinolin-1(2H)-one] | < 0.01 µM | 0.01 to 1 µM | 0.01 to 1 µM
2 | CCOc1cc(CN2CCc3c(cc(CCN(C)CC)cc3-c3cc(C)nnc3C)C2=O)ncc1C [Example 212, 5-(3,6-dimethylpyridazin-4-yl)-2-((4-ethoxy-5-methylpyridin-2-yl)methyl)-7-(2-(ethyl(methyl)amino)ethyl)-3,4-dihydroisoquinolin-1(2H)-one] | < 0.01 µM | 0.01 to 1 µM | 0.01 to 1 µM
3 | CCOc1cc([C@H](C)N2CCc3c(cc(CCN4C[C@@H](O)[C@H]4C)cc3-c3cn(C)nc3C(F)F)C2=O)ncc1C#N [Example 213, 6-((S)-1-(5-(3-(difluoromethyl)-1-methyl-1H-pyrazol-4-yl)-7-(2-((2R,3R)-3-hydroxy-2-methylazetidin-1-yl)ethyl)-1-oxo-3,4-dihydroisoquinolin-2(1H)-yl)ethyl)-4-ethoxynicotinonitrile] | < 0.01 µM | 0.01 to 1 µM | 0.01 to 1 µM
4 | CCOc1cc([C@H](C)N2CCc3c(cc(CCN4C[C@@H](O)[C@H]4C)cc3-c3cc(N)cnc3C(F)(F)F)C2=O)ncc1C#N [Example 214] | < 0.01 µM | 0.01 to 1 µM | 0.01 to 1 µM
5 | CCOc1cc([C@H](C)N2CCc3c(cc(CCN4C[C@@H](O)[C@H]4C)cc3-c3cn(C)c(=O)cc3Cl)C2=O)ncc1C#N [Example 215] | < 0.01 µM | 0.01 to 1 µM | 0.01 to 1 µM
6 | CCOc1cc([C@H](C)N2CCc3c(cc(CCN4C[C@@H](O)[C@H]4C)cc3-c3cn(C)c(=O)cc3C)C2=O)ncc1C#N [Example 216] | < 0.01 µM | 0.01 to 1 µM | 0.01 to 1 µM
7 | CCOc1cc([C@H](C)N2CCc3c(cc(CCN4C[C@@H](O)[C@H]4C)cc3-c3ccc(F)nc3C)C2=O)ncc1C#N [Example 217] | < 0.01 µM | 0.01 to 1 µM | 0.01 to 1 µM
8 | CCOc1cc([C@H](C)N2CCc3c(cc(CCN4C[C@@H](O)[C@H]4C)cc3-c3cc(C(F)F)cnc3C)C2=O)ncc1C#N [Example 218] | < 0.01 µM | 0.01 to 1 µM | 0.01 to 1 µM
9 | CCOc1cc([C@H](C)N2CCc3c(cc(CCN4C[C@@H](O)[C@H]4C)cc3-c3ccc(N)nc3C)C2=O)ncc1C#N [Example 219] | < 0.01 µM | 0.01 to 1 µM | 0.01 to 1 µM
10 | CCOc1cc([C@H](C)N2CCc3c(cc(CCN4C[C@@H](O)[C@H]4C)cc3-c3cc(C)cnc3C)C2=O)ncc1C#N [Example 220] | < 0.01 µM | 0.01 to 1 µM | 0.01 to 1 µM
11 | CCOc1cc([C@H](C)N2CCc3c(cc(CCN4C[C@@H](O)[C@H]4C)cc3-c3cc(C)ncc3C)C2=O)ncc1C#N [Example 221] | < 0.01 µM | 0.01 to 1 µM | 0.01 to 1 µM
12 | CCOc1cc(CN2CCc3c(cc(CCN4C[C@@H](O)[C@H]4C)cc3-c3ccc(F)nc3C)C2=O)ncc1C#N [Example 222] | 0.01 to 1 µM | 0.01 to 1 µM | 0.01 to 1 µM
13 | CCOc1cc([C@@H](C)N2CCc3c(cc(CCN4C[C@@H](O)[C@H]4C)cc3-c3cc(C)ncc3C)C2=O)ncc1C#N [Example 223] | 0.01 to 1 µM | 0.01 to 1 µM | 0.01 to 1 µM
14 | CCOc1cc(CN2CCc3c(cc(CCN4C[C@@H](O)[C@H]4C)cc3-c3cn(C)c(=O)cc3C(F)(F)F)C2=O)ncc1C#N [Example 224] | 0.01 to 1 µM | 0.01 to 1 µM | 0.01 to 1 µM
15 | CCOc1cc([C@H](C)N2CCc3c(cc(CCN4CC[C@@H](O)[C@H]4C)cc3-c3ccc(F)nc3C)C2=O)ncc1C#N [Example 225, 4-ethoxy-6-((S)-1-(5-(6-fluoro-2-methylpyridin-3-yl)-7-(2-((2R, 3R)-3-hydroxy-2-methylpyrrolidin-1-yl)ethyl)-1-oxo-3,4-dihydroisoquinolin-2(1H)-yl)ethyl)nicotinonitrile] | < 0.01 µM | 0.01 to 1 µM | 0.01 to 1 µM
16 | CCOc1cc([C@H](C)N2CCc3c(cc(CCN4C[C@@H](O)C[C@H]4C)cc3-c3ccc(F)nc3C)C2=O)ncc1C#N [Example 226] | < 0.01 µM | 0.01 to 1 µM | 0.01 to 1 µM
17 | CCOc1cc([C@H](C)N2CCc3c(cc(CCN4C[C@@H](O)C[C@@H]4C)cc3-c3ccc(F)nc3C)C2=O)ncc1C#N [Example 227] | 0.01 to 1 µM | 0.01 to 1 µM | 1 to 25 µM
18 | CCOc1cc([C@H](C)N2CCc3c(cc(CCN(C)CCO)cc3-c3cc(F)cnc3C(F)(F)F)C2=O)ncc1C#N [Example 228, (S)-4-ethoxy-6-(1-(5-(5-fluoro-2-(trifluoromethyl)pyridin-3-yl)-7-(2-((2-hydroxyethyl)(methyl)amino)ethyl)-1-oxo-3,4-dihydroisoquinolin-2(1H)-yl)ethyl)nicotinonitrile] | < 0.01 µM | 0.01 to 1 µM | 0.01 to 1 µM
19 | CCOc1cc([C@H](C)N2CCc3c(cc(CCN(C)C4CC4)cc3-c3ccc(F)nc3C)C2=O)ncc1C#N [Example 229] | < 0.01 µM | 0.01 to 1 µM | 0.01 to 1 µM

Row | Structure (SMILES) | IC50 (WDR5) | AC50 [1] | AC50 (MV4-11 cells)
20 | CCOc1cc([C@H](C)N2CCc3c(cc(CCN(C)CCO)cc3-c3cc(N)cnc3C(F)(F)F)C2=O)ncc1C#N [Example 230] | < 0.01 µM | 0.01 to 1 µM | 0.01 to 1 µM
21 | CCOc1cc(C(C)N2CCc3c(cc(CCN(C)C4COC4)cc3-c3ccc(F)nc3C)C2=O)ncc1C#N (stereo not drawn) [Example 231] | < 0.01 µM | 0.01 to 1 µM | 0.01 to 1 µM
22 | CCOc1cc([C@H](C)N2CCc3c(cc(CCN(C)CCOC)cc3-c3cc(C)ncc3C)C2=O)ncc1C#N [Example 232] | < 0.01 µM | 0.01 to 1 µM | 0.01 to 1 µM
23 | CCOc1cc(C(C)N2CCc3c(cc(CCN(C)CCOC)cc3-c3cn(C)c(=O)cc3Cl)C2=O)ncc1C#N (stereo not drawn) [Example 233] | < 0.01 µM | 0.01 to 1 µM | 0.01 to 1 µM
24 | CCOc1cc([C@H](C)N2CCc3c(cc(CCN(C)CCOC)cc3-c3ccc(F)nc3C)C2=O)ncc1C#N [Example 234] | < 0.01 µM | 0.01 to 1 µM | 0.01 to 1 µM
25 | CCOc1cc([C@H](C)N2CCc3c(cc(CCN4CC[C@H]4C)cc3-c3ccc(F)nc3C)C2=O)ncc1C#N [Example 235] | < 0.01 µM | 0.01 to 1 µM | 0.01 to 1 µM
26 | CCOc1cc(C(C)N2CCc3c(cc(CCN(C)CCF)cc3-c3ccc(F)nc3C)C2=O)ncc1C#N (stereo not drawn) [Example 236] | < 0.01 µM | 0.01 to 1 µM | 0.01 to 1 µM
27 | CCOc1cc(C(C)N2CCc3c(cc(CCN(C)CCF)cc3-c3cn(C)c(=O)cc3Cl)C2=O)ncc1C#N (stereo not drawn) [Example 237] | < 0.01 µM | 0.01 to 1 µM | 0.01 to 1 µM
28 | CCOc1cc([C@H](C)N2CCc3c(cc(CCN(C)CCO)cc3-c3cn(C)c(=O)cc3Cl)C2=O)ncc1C#N [Example 238] | < 0.01 µM | 0.01 to 1 µM | 0.01 to 1 µM
29 | CCOc1cc([C@H](C)N2CCc3c(cc(CCN(C)CC(C)O)cc3-c3cn(C)c(=O)cc3Cl)C2=O)ncc1C#N (stereo partly drawn) [Example 239] | < 0.01 µM | 0.01 to 1 µM | 0.01 to 1 µM
30 | CCOc1cc([C@H](C)N2CCc3c(cc(CCN(C)CCOC)cc3-c3cn(C)c(=O)cc3Cl)C2=O)ncc1C#N [Example 240] | < 0.01 µM | 0.01 to 1 µM | 0.01 to 1 µM
31 | CCOc1cc(C(C)N2CCc3c(cc(CCN(C)CCF)cc3-c3cn(C)nc3C)C2=O)ncc1C#N (stereo not drawn) [Example 241] | 0.01 to 1 µM | 0.01 to 1 µM | 0.01 to 1 µM
32 | CCOc1cc([C@H](C)N2CCc3c(cc(CCN(C)CC(C)O)cc3-c3ccc(F)nc3C)C2=O)ncc1C#N (stereo partly drawn) [Example 242] | 0.01 to 1 µM | 0.01 to 1 µM | 0.01 to 1 µM
33 | CCOc1cc([C@H](C)N2CCc3c(cc(CCN4CC[C@H]4CO)cc3-c3ccc(F)nc3C)C2=O)ncc1C#N [Example 243] | 0.01 to 1 µM | 0.01 to 1 µM | 0.01 to 1 µM
34 | CCOc1cc([C@H](C)N2CCc3c(cc(CCN4C[C@@H](OC)[C@H]4C)cc3-c3ccc(F)nc3C)C2=O)ncc1C#N [Example 244] | 0.01 to 1 µM | 0.01 to 1 µM | 0.01 to 1 µM
35 | CCOc1cc(CN2CCc3c(cc(CCN4CC[C@H]4C)cc3-c3ccc(F)nc3C)C2=O)ncc1C#N [Example 245] | 0.01 to 1 µM | 0.01 to 1 µM | 0.01 to 1 µM
36 | CCOc1cc([C@H](C)N2CCc3c(cc(CCN(C)CC(C)O)cc3-c3cc(C)cnc3C)C2=O)ncc1C#N (stereo partly drawn) [Example 246] | 0.01 to 1 µM | 0.01 to 1 µM | 0.01 to 1 µM
37 | CCOc1cc([C@H](C)N2CCc3c(cc(CCN(C)CCF)cc3-c3ccc(F)nc3C)C2=O)ncc1C#N [Example 247] | 0.01 to 1 µM | 0.01 to 1 µM | 0.01 to 1 µM
38 | CCOc1cc(C(C)N2CCc3c(cc(CCN(C)CCF)cc3-c3cc(C)ncc3C)C2=O)ncc1C#N (stereo not drawn) [Example 248] | 0.01 to 1 µM | 0.01 to 1 µM | 0.01 to 1 µM
